This note sets out measurements from US7074778B2, “Asthma associated factors as targets for treating atopic allergies including asthma and related disorders” (Genaera Corporation, priority 1999, dated 2006).

Values after ≈ are worked out from the molar mass of the structure shown. Where two headings read alike, the source gives them in different places. A value given as a limit tells only on which side of the number the result lay.

Series [1] relates to mitogen or antigen stimulated murine or human lymphocytes. The series is described as follows: Lymphocyte aggregation assay (PHA-PMA mitogen stimulated). It is filed as cell-based. The settings on record: aggregates of greater than 100 cells, PHA-PMA stimulation; for minimal effective concentration: Homo sapiens, Lymphocyte, 12 h, read-out: Aggregation Assay Minimum Effective Conc. As for the experimental part:
(§1) Immunomodulatory 3-aminosteroids (FIGS. 3–7 and Table I) were identified in vitro based on their ability to inhibit homo- or hetero-typic aggregation and subsequent proliferation of mitogen or antigen stimulated murine or human lymphocytes. Human or mouse lymphocytes were isolated from peripheral blood by Ficoll-Hypaque as described (Stoeckert et al., (1990) Exp. Hematol. 18. 1164–1170). For mitogen stimulation, 1×10^5 cells per well were plated in varying amounts of 3-aminosteroid compounds and assayed for aggregation and proliferation after twelve hours of stimulation by PHA-PMA mitogens. […] For antigen stimulation, lymphocytes were isolated from BALBc mice which had been sensitized to Aspergillus fumigatus antigen for three weeks and plated at 1×10^5 cells per well with or without 100 units of Aspergillus fulmigatus antigen. Cells were grown for three days and then scored for cellular aggregates and proliferation as described above in the presence or absence of increasing amounts of Compound-B or analogue compounds. […] Similar results were obtained in assays using antigen mediated response to compounds (not shown). […] All of the active compounds shown in Table I as well as rational modifications of these compounds as depicted in FIGS. 8–10 are embodiments of the invention

Series [2] has the same test system. The series is described as follows: PBMC proliferation assay (tritiated thymidine incorporation). It is filed as cell-based. As to conditions: for IC50: Homo sapiens, Lymphocyte. Here is the method:
as §1

Setting [3] is: tritiated thymidine incorporation, read-out: PBMC Proliferation ASSAY IC50.
[4] abbreviates: tritiated thymidine incorporation.

Turning to `C[C@@H](CC1CCOC1=O)C1CCC2C3CC[C@@H]4C[C@@H](NCCN)CC[C@]4(C)C3CC[C@@]21C` (mixture of isomers) [Compound-K], the minimal effective concentration in series [1] came out at 10 µg/mL. Also, the IC50 in series [2] (setting [3]) worked out at 0.31 µg/mL (≈ 0.697 µM).

As for `COC(=O)CC[C@H](C)C1CCC2C3CC[C@@H]4C[C@@H](NCCNC(C)C)CC[C@]4(C)C3C[C@@H](O)[C@@]21C` (some centres unmarked) [AA], in series [1], the minimal effective concentration was determined as 10 µg/mL. For the same compound, the IC50 in series [2] (setting [3]) is 0.42 µg/mL (≈ 0.856 µM).

In the case of `COC(=O)CC[C@H](C)C1CCC2C3CC[C@@H]4C[C@@H](N)CC[C@]4(C)C3C[C@@H](O)[C@@]21C` (some centres unmarked) [AB], the minimal effective concentration in series [1] turned out to be 10 µg/mL. The IC50 in series [2] (setting [3]) was determined as 2.54 µg/mL (≈ 6.26 µM).

Take `COC(=O)CC[C@H](C)C1CCC2C3CC[C@@H]4C[C@@H](NCCN)CC[C@]4(C)C3C[C@@H](O)[C@@]21C` (some centres unmarked) [AC]: the minimal effective concentration in series [1] worked out at 10 µg/mL. In series [2] (setting [3]), the IC50 is 0.47 µg/mL (≈ 1.05 µM).

As to `COC(=O)CC[C@H](C)C1CCC2C3C(CC[C@@]21C)[C@@]1(C)CC[C@H](NCCN)C[C@H]1C[C@@H]3OC(C)=O` (some centres unmarked) [AD], in series [1], the minimal effective concentration is 10 µg/mL. For the same compound, the IC50 in series [2] (setting [3]) was found to be 0.29 µg/mL (≈ 0.591 µM).

For `COC(=O)CC[C@@H](C)C1CCC2C3C(CC[C@@]21C)[C@@]1(C)CC[C@H](N2CCNCC2)C[C@H]1C[C@H]3O` (some centres unmarked) [AE], the minimal effective concentration in series [1] turned out to be 10 µg/mL. Further, in series [2] (setting [3]), the IC50 amounted to 0.28 µg/mL (≈ 0.59 µM).

As to `COC(=O)CC[C@H](C)C1CCC2C3C[C@@H](O)[C@@H]4C[C@@H](NCCCOCCCCOCCCN)CC[C@]4(C)C3CC[C@@]21C` (some centres unmarked) [AF], in series [1], the minimal effective concentration came out at 10 µg/mL. Moreover, the IC50 in series [2] (setting [3]) was 2.41 µg/mL (≈ 4.06 µM).

`COC(=O)CC[C@@H](C)C1CCC2C3C[C@@H](O)[C@H]4C[C@H](NCCN)CC[C@]4(C)C3CC[C@@]21C` (some centres unmarked) [AG]: the minimal effective concentration in series [1] is 10 µg/mL.

Turning to `COC(=O)CC[C@@H](C)C1CCC2C3CC[C@@H]4C[C@@H](NCCN)CC[C@]4(C)C3C[C@H](O)[C@@]21C` (some centres unmarked) [AH], in series [1], the minimal effective concentration was determined as 1 µg/mL. Also, the IC50 in series [2] (setting [3]) was determined as 0.1 µg/mL (≈ 0.223 µM).

Regarding `C[C@H](CCC(=O)O)C1CCC2C3CC[C@@H]4C[C@H](NCCN)CC[C@]4(C)C3C[C@H](O)[C@@]21C` (some centres unmarked) [C], in series [1], the minimal effective concentration is > 10 µg/mL.

Regarding `C[C@@H](CNS(C)(=O)=O)C1CCC2C3CC[C@@H]4C[C@@H](NCCN)CC[C@]4(C)C3CC[C@@]21C` (some centres unmarked) [Compound-F], the IC50 in series [2] (setting [3]) amounted to 2.88 µg/mL (≈ 6.35 µM).

Regarding `C[C@@H](CNS(C)(=O)=O)C1CCC2C3CC[C@@H]4C[C@@H](NCCN)CC[C@]4(C)C3CC[C@@]21C` (some centres unmarked) [Compound-G], in series [1], the minimal effective concentration was 10 µg/mL.

Take `COC(=O)NC[C@@H](C)C1CCC2C3CC[C@H]4C[C@@H](NCCN)CC[C@]4(C)C3CC[C@@]21C` (some centres unmarked) [Compound-H]: the IC50 in series [2] (setting [3]) worked out at 0.26 µg/mL (≈ 0.6 µM). Besides, in series [2] (setting [4]), the “PBMC Proliferation ASSAY IC50” value turned out to be 0.44 µg/mL.

For the compound `C[C@H](CC1CCOC1=O)C1CCC2C3CC[C@H]4C[C@@H](NCCN)CC[C@]4(C)C3CC[C@@]21C` (some centres unmarked) [Compound-J], the minimal effective concentration in series [1] is 1 µg/mL. Also, in series [2] (setting [3]), the IC50 is 0.03 µg/mL (≈ 0.0675 µM).

`C[C@H](CC1CCOC1=O)C1CCC2C3CC[C@H]4C[C@@H](N5CCCNCC5)CC[C@]4(C)C3CC[C@@]21C` (some centres unmarked) [Compound-M]: the minimal effective concentration in series [1] was found to be 10 µg/mL.

In the case of `C[C@@H](COc1ccccn1)C1CCC2C3CC[C@@H]4C[C@@H](NCCN)CC[C@]4(C)C3CC[C@@]21C` (some centres unmarked) [Compound-N], the “Aggregation Assay Minimum Effective Conc.” value in series [1] is 1 to 10 µg/mL. For the same compound, the “PBMC Proliferation ASSAY IC50” value in series [2] (setting [4]) is 0.06 µg/mL.

For `C[C@@H](COc1ccccn1)C1CCC2C3CC[C@@H]4C[C@@H](NCCN)CC[C@]4(C)C3CC[C@@]21C` (some centres unmarked) [Compound-O], the “Aggregation Assay Minimum Effective Conc.” value in series [1] was found to be 10 µg/mL. Moreover, the “PBMC Proliferation ASSAY IC50” value in series [2] (setting [4]) stood at 0.25 µg/mL.

`C[C@@H](COc1ccccn1)C1CCC2C3CC[C@@H]4C[C@@H](N5CCNCC5)CC[C@]4(C)C3CC[C@@]21C` (some centres unmarked) [Compound-P]: the minimal effective concentration in series [1] was > 10 µg/mL.

On to `C[C@H](CCC(=O)O)C1CCC2C3C(CC[C@@]21C)[C@@]1(C)CC[C@H](NCCN)C[C@H]1C[C@H]3O` (some centres unmarked) [E], for which, in series [1], the minimal effective concentration was > 10 µg/mL. Also, the IC50 in series [2] (FIG. 11 and FIG. 12, mitogen-stimulated lymphocytes, read-out: IC50 for suppression of lymphocyte aggregation and proliferation) is > 10 µg/mL.

Turning to `COC(=O)CC[C@H](C)C1CCC2C3CC(O)[C@@H]4C[C@@H](NCCNC(C)C)CC[C@]4(C)C3CC[C@@]21C` (some centres unmarked) [R], the IC50 in series [2] (setting [3]) worked out at 0.24 µg/mL (≈ 0.489 µM).

Consider `COC(=O)CC[C@H](C)C1CCC2C3CC[C@@H]4C[C@@H](NCCN)CC[C@]4(C)C3CC[C@@]21C` (some centres unmarked) [S], for which, in series [1], the minimal effective concentration stood at 10 µg/mL. In addition, in series [2], the “toxicity remark in PBMC Proliferation ASSAY” value is recorded as “toxic”. In series [2] (setting [3]), the IC50 was < 0.1 µg/mL.

With `COC(=O)CC[C@H](C)C1CCC2C3C(O)C[C@@H]4C[C@@H](NCCN)CC[C@]4(C)C3CC[C@@]21C` (some centres unmarked) [T], the minimal effective concentration in series [1] came out at 10 µg/mL. Besides, the IC50 in series [2] (setting [3]) is 2.77 µg/mL (≈ 6.17 µM).

With `CC(C)OC(=O)CC[C@H](C)C1CCC2C3C(O)C[C@@H]4C[C@@H](NCCN)CC[C@]4(C)C3CC[C@@]21C` (some centres unmarked) [U], in series [1], the “Aggregation Assay Minimum Effective Conc.” value was in the range of 1 to 10 µg/mL. The IC50 in series [2] (setting [3]) came to 0.4 µg/mL (≈ 0.839 µM).

In the case of `CC(C)OC(=O)CC[C@H](C)C1CCC2C3C(O)C[C@@H]4C[C@@H](NCCN)CC[C@]4(C)C3CC[C@@]21C` (some centres unmarked) [V], in series [1], the “Aggregation Assay Minimum Effective Conc.” value worked out at 10 µg/mL. The “PBMC Proliferation ASSAY IC50” value in series [2] (setting [4]) came to 0.41 µg/mL.

Regarding `COC(=O)CC[C@H](C)C1CCC2C3CC[C@@H]4C[C@@H](NCCN5CCCC5)CC[C@]4(C)C3C[C@@H](O)[C@@]21C` (some centres unmarked) [W], the minimal effective concentration in series [1] was determined as 10 µg/mL.

Turning to `COC(=O)CC[C@H](C)C1CCC2C3CC[C@@H]4C[C@@H](NCc5ccccn5)CC[C@]4(C)C3C[C@@H](O)[C@@]21C` (some centres unmarked) [X], in series [1], the minimal effective concentration stood at 10 µg/mL.

`COC(=O)CC[C@H](C)C1CCC2C3CC[C@@H]4C[C@@H](NCCNc5ccccc5)CC[C@]4(C)C3C[C@@H](O)[C@@]21C` (some centres unmarked) [Y]: in series [1], the minimal effective concentration worked out at 10 µg/mL.

In the case of `COC(=O)CC[C@H](C)C1CCC2C3CC[C@@H]4C[C@@H](NCCC5CCCN5C)CC[C@]4(C)C3C[C@@H](O)[C@@]21C` (some centres unmarked) [Z], the minimal effective concentration in series [1] was determined as 10 µg/mL. For the same compound, the IC50 in series [2] (setting [3]) was found to be 0.71 µg/mL (≈ 1.37 µM).
